Source: article PMC10179503, “Using Machine Learning and Molecular Docking to Leverage Urease Inhibition Data for Virtual Screening” (International Journal of Molecular Sciences, 2023)

Assays:
[1] = molecular target: T1, jack bean urease (Canavalia ensiformis, UniProt P07374); experiment: indophenol (Weatherburn) ammonia release, […] nm; type: biochemical; conditions: read-out: % at 1 mM or IC50 ± SEM
T1 construct: nickel metalloenzyme; full length 840 residues, native oligomer a hexamer (known biology)
T1 sequence (P07374 whole entry): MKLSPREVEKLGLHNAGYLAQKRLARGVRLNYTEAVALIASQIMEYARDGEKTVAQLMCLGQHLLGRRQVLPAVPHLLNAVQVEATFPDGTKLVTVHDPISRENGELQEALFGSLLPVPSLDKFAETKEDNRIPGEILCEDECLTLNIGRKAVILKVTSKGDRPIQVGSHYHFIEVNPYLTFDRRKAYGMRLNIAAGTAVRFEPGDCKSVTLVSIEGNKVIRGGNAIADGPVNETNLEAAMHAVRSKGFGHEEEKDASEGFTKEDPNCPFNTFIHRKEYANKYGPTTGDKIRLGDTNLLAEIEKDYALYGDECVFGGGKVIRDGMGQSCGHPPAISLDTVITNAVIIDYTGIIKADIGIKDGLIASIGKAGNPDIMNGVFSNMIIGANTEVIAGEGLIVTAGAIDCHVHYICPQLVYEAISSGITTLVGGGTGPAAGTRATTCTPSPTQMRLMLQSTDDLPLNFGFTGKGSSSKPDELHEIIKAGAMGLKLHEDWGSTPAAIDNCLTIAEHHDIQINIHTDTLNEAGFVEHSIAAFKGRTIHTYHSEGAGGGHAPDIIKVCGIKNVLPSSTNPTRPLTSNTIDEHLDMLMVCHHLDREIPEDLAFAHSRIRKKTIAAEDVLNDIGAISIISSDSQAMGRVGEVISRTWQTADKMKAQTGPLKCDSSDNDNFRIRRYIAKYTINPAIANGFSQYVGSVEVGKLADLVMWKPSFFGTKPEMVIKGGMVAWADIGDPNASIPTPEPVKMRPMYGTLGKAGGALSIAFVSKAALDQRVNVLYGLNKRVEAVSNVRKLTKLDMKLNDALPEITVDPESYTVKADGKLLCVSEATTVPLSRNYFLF

[2] = molecular target: T1, jack bean urease; experiment: indophenol (Weatherburn) ammonia release, […] nm; type: biochemical; conditions: urea (20 mM stock, 45 μL), PBS, 30 °C, 10 min

NC(N)=S [Thiourea, reference compound]
IC50 [1]: 144 ± 5.08 µM

O=S(=O)(NOCc1ccccc1)c1ccccc1 [compound 2, 2]
IC50 [1]: 100 ± 10.2 µM

[O-][S+](NOCc1ccccc1)c1ccccc1 (stereo not drawn) [compound 3, 3]
IC50 [1]: 6.15 ± 0.99 µM

NOC(=O)c1ccccc1 [compound 5, 5]
IC50 [1]: 155 ± 2.02 µM

Cc1ccc(S(=O)(=O)NOCc2ccccc2)cc1 [compound 1, 1]
% at 1 mM or IC50 ± SEM (μM) [2]: 43.85%

O=C(ON[S+]([O-])c1ccccc1)c1ccccc1 (stereo not drawn) [compound 4, 4]
% at 1 mM or IC50 ± SEM (μM) [2]: 0%
